Results from patent publication US20100056524A1, “Compound” (priority 2008, published 2010).
Where two headings read alike, the source gives them in different places.

Experiments:
Assay type in all cases: biochemical
Details in all cases: for remaining activity at 10 µM: 10 μM compound
P38b MAPK = molecular target: T1, P38b MAPK (Homo sapiens, UniProt Q15759); assay: P38b MAPK protein kinase assay
T1 construct: All protein kinases were of human origin and encoded full length proteins, unless indicated otherwise; made in house
From the text: (§1) All protein kinases were of human origin and encoded full length proteins, unless indicated otherwise. They were either expressed as glutathione S-transferase (GST) fusion proteins in Escherichia Coli or as hexahistidine (His6)-tagged proteins in insect Sf21 cells. GST fusion proteins were purified by affinity chromatography on glutathione-Sepharose, and His6-tagged proteins on nickel/nitriloacetate-agarose. The procedures for expressing some of the protein kinases used herein have been detailed previously.^8,9 The following sections outline the DNA vectors synthesised and the procedures used to express and purifying protein kinases that have not been reported previously.
(§2) All assays (25.5 μl) were carried out at room temperature (21° C.) and were linear with respect to time and enzyme concentration under the conditions used. Assays were performed for 30 min using Multidrop Micro reagent dispensers (Thermo Electron Corporation, Waltham, Mass. 02454, USA) in a 96-well format. The concentration of magnesium acetate in the assays was 10 mM and the [γ-33P] ATP (800 cpm/pmol) was used at 5, 20 or 50 μM as indicated, in order to be at or below the Km for ATP for each enzyme. Protein kinases assayed at 5 μM ATP were: —ERK1, ERK8, PKBα, MARK3, Aurora C. Protein kinases assayed at 20 μM ATP were: —JNK1, PDK1, CHK1, CHK2, CDK2 and Aurora B. Protein kinases assayed at 50 μM ATP were: —MNK2, IKKepsilon and TBK1.
(§3) The assays were initiated with MgATP, stopped by addition of 5 μl of 0.5 M orthophosphoric acid and spotted on to P81 filterplates using a unifilter harvester (PerkinElmer, Boston, Mass. 02118, USA). The IC50 values of inhibitors were determined after carrying out assays at 10 different concentrations of each compound.
(§4) Unless stated otherwise, enzymes were diluted in 50 mM Tris/HCl pH 7.5, 0.1 mM EGTA, 1 mg/ml BSA, 0.1% (v/v) 2-mercaptoethanol and assayed in 50 mM Tris/HCl pH 7.5, 0.1 mM EGTA, 0.1% (v/v) 2-mercaptoethanol.

HIPK2 = molecular target: T2, HIPK2 (Homo sapiens, UniProt Q9H2X6); assay: HIPK2 protein kinase assay
T2 construct: All protein kinases were of human origin and encoded full length proteins, unless indicated otherwise; made in house
From the text: as §1, §2, §3, §4

CAMKKb = molecular target: T3, CAMKKb (Homo sapiens, UniProt Q96RR4); assay: CAMKKb protein kinase assay
T3 construct: All protein kinases were of human origin and encoded full length proteins, unless indicated otherwise; made in house
From the text: as §1, §2, §3, §4

FGF-R1 = molecular target: T4, FGF-R1 (Homo sapiens, UniProt P11362); assay: FGF-R1 protein kinase assay
T4 construct: All protein kinases were of human origin and encoded full length proteins, unless indicated otherwise; made in house
From the text: as §1, §2, §3, §4

BTK = molecular target: T5, BTK (Homo sapiens, UniProt Q06187); assay: BTK protein kinase assay
T5 construct: All protein kinases were of human origin and encoded full length proteins, unless indicated otherwise; made in house
From the text: as §1, §2, §3, §4

MKK1 = molecular target: T6, MKK1 (Homo sapiens, UniProt Q02750); assay: MKK1 protein kinase assay
T6 construct: All protein kinases were of human origin and encoded full length proteins, unless indicated otherwise; made in house
From the text: as §1, §2, §3, §4

Lck = molecular target: T7, Lck (Homo sapiens, UniProt P06239); assay: Lck protein kinase assay
T7 construct: All protein kinases were of human origin and encoded full length proteins, unless indicated otherwise; made in house
From the text: as §1, §2, §3, §4

SYK = molecular target: T8, SYK (Homo sapiens, UniProt P43405); assay: SYK protein kinase assay
T8 construct: All protein kinases were of human origin and encoded full length proteins, unless indicated otherwise; made in house
From the text: as §1, §2, §3, §4

CSK = molecular target: T9, CSK (Homo sapiens, UniProt P41240); assay: CSK protein kinase assay
T9 construct: All protein kinases were of human origin and encoded full length proteins, unless indicated otherwise; made in house
From the text: as §1, §2, §3, §4

PIM3 = molecular target: T10, PIM3 (Homo sapiens, UniProt Q86V86); assay: PIM3 protein kinase assay
T10 construct: All protein kinases were of human origin and encoded full length proteins, unless indicated otherwise; made in house
From the text: as §1, §2, §3, §4

VEG-FR = molecular target: T11, VEG-FR (Homo sapiens, UniProt P17948); assay: VEG-FR protein kinase assay
T11 construct: All protein kinases were of human origin and encoded full length proteins, unless indicated otherwise; made in house
T11 sequence (P17948 784-1338 limits assumed): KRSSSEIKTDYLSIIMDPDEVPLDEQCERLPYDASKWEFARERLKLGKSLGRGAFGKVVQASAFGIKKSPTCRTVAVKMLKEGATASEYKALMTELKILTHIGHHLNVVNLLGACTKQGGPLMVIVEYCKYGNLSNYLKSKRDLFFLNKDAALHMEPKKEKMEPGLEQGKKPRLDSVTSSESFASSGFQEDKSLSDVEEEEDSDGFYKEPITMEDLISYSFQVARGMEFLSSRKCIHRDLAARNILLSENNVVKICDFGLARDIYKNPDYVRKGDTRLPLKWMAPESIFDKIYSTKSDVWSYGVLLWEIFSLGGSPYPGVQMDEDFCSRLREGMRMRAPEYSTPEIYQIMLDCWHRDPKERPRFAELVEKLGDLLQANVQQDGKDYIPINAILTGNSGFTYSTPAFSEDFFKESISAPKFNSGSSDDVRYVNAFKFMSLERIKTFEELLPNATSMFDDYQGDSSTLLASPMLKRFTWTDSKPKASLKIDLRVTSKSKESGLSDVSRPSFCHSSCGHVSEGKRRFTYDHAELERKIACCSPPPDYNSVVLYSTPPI
From the text: as §1, §2, §3, §4

MAPKAP-K2 = molecular target: T12, MAPKAP-K2 (Homo sapiens, UniProt P49137); assay: MAPKAP-K2 protein kinase assay
T12 construct: All protein kinases were of human origin and encoded full length proteins, unless indicated otherwise; made in house
From the text: as §1, §2, §3, §4

PRK2 = molecular target: T13, PRK2 (Homo sapiens, UniProt Q16513); assay: PRK2 protein kinase assay
T13 construct: All protein kinases were of human origin and encoded full length proteins, unless indicated otherwise; made in house
From the text: as §1, §2, §3, §4

PLK1 = molecular target: T14, PLK1 (Homo sapiens, UniProt P53350); assay: PLK1 protein kinase assay
T14 construct: All protein kinases were of human origin and encoded full length proteins, unless indicated otherwise; made in house
From the text: as §1, §2, §3, §4

T4 sequence (P11362 400-820 limits assumed): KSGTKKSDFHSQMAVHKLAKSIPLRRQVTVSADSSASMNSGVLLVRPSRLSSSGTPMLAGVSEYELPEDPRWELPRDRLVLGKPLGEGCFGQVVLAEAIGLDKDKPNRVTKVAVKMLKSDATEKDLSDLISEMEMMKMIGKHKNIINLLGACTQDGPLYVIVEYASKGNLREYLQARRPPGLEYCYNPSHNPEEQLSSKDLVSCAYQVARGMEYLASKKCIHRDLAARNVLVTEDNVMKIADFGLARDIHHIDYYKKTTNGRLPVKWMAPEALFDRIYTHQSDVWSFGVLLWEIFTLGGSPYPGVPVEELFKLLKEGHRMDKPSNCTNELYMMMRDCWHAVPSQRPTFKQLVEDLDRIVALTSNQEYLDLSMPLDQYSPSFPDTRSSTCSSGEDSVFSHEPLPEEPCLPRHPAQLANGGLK
T5 sequence (Q06187 whole entry): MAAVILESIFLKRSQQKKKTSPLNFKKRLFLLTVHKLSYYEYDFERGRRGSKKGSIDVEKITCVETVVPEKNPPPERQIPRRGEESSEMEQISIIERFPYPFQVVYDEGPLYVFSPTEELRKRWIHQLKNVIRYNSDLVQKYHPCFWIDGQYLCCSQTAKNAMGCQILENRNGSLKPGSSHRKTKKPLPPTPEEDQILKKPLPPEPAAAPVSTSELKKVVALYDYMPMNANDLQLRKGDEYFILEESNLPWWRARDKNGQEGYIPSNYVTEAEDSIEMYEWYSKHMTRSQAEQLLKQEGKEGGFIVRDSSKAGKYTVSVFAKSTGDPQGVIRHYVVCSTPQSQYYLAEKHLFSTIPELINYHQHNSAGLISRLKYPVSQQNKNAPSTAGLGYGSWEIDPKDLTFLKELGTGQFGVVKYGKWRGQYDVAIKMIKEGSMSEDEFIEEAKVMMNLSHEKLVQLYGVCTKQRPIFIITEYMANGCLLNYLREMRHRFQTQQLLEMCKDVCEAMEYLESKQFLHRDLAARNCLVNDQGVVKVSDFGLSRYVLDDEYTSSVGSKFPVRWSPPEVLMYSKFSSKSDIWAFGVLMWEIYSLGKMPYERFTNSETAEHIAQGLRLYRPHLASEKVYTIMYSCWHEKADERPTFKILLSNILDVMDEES
T6 sequence (Q02750 whole entry): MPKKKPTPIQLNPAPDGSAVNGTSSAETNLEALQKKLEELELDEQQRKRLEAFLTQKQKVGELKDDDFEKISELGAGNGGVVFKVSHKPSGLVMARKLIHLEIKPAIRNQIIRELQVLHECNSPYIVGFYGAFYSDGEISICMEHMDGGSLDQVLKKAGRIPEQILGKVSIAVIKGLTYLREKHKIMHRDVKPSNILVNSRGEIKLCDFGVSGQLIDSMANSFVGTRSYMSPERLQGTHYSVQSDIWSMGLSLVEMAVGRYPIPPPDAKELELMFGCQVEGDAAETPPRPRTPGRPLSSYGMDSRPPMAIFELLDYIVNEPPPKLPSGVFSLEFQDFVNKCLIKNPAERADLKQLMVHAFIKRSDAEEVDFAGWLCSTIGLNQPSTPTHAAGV
T1 sequence (Q15759 whole entry): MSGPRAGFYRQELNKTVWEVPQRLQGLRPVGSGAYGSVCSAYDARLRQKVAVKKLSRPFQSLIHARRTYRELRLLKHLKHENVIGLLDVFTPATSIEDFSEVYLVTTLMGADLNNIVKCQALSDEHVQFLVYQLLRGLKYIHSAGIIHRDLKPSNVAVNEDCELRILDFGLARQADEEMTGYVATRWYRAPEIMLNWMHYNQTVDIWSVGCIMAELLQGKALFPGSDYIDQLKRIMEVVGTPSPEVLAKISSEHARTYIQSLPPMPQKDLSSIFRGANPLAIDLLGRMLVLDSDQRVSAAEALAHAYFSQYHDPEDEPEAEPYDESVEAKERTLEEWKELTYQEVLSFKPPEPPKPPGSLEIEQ
T2 sequence (Q9H2X6 165-564 limits assumed): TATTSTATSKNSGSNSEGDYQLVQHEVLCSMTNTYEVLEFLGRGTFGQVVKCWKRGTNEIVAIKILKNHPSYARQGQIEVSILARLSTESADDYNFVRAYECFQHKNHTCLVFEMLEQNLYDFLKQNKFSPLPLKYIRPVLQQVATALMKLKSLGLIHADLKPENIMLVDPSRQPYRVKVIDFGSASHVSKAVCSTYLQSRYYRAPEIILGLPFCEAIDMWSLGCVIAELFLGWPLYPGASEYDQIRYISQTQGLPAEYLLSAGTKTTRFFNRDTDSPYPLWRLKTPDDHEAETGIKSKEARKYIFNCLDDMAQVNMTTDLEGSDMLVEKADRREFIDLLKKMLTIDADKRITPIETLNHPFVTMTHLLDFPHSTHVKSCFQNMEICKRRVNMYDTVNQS
T13 sequence (Q16513 501-984 limits assumed): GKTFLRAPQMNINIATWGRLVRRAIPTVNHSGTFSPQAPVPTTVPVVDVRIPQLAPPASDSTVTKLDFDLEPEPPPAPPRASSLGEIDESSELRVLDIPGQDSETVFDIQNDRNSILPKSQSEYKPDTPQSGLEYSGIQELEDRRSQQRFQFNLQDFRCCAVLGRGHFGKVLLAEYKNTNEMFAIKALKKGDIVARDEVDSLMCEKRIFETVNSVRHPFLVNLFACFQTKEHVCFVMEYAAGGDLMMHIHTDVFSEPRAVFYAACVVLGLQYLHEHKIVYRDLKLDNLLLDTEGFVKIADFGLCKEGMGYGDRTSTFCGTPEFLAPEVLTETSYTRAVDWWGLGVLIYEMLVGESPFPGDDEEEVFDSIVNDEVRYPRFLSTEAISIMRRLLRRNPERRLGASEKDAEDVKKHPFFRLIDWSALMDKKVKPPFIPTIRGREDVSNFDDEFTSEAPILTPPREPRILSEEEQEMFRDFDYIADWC
T9 sequence (P41240 whole entry): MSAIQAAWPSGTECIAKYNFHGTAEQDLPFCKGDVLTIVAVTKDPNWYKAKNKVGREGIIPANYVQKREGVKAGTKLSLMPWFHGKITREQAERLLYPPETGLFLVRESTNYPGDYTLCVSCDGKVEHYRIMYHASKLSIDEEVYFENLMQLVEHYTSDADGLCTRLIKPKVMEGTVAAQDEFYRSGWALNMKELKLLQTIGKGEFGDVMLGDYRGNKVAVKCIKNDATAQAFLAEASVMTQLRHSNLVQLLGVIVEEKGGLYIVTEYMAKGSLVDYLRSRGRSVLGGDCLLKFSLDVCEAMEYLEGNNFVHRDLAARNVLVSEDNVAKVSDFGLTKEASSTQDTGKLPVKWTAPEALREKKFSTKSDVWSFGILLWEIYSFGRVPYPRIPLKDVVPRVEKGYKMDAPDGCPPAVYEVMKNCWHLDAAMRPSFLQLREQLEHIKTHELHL
T7 sequence (P06239 whole entry): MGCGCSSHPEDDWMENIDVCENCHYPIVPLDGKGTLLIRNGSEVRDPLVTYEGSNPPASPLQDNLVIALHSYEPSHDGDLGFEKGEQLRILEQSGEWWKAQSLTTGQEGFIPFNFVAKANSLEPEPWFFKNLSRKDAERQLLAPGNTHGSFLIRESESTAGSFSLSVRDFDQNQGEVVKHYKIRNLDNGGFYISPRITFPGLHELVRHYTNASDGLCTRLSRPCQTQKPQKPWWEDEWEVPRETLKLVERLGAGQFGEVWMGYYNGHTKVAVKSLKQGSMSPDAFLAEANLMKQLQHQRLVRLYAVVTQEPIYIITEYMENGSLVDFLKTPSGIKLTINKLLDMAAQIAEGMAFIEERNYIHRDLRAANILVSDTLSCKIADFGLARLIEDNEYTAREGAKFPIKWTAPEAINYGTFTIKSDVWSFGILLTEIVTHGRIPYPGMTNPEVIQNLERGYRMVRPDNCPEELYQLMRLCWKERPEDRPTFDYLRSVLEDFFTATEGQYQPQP
T14 sequence (P53350 whole entry): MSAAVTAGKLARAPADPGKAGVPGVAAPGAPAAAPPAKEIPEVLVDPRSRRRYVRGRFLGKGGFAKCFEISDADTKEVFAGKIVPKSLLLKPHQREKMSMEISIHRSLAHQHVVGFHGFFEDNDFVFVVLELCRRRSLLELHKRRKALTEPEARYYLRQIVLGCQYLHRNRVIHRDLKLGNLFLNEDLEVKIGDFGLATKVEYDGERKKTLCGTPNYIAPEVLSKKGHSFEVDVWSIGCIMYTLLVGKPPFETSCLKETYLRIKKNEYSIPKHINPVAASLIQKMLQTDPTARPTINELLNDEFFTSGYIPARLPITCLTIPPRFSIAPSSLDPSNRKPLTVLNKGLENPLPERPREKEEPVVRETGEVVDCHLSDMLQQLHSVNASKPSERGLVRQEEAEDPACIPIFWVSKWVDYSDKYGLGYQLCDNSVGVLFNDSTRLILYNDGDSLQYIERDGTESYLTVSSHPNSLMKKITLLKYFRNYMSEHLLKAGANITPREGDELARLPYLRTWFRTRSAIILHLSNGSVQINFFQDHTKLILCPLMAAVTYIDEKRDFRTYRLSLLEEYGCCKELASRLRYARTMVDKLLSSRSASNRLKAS
T12 sequence (P49137 46-400 limits assumed): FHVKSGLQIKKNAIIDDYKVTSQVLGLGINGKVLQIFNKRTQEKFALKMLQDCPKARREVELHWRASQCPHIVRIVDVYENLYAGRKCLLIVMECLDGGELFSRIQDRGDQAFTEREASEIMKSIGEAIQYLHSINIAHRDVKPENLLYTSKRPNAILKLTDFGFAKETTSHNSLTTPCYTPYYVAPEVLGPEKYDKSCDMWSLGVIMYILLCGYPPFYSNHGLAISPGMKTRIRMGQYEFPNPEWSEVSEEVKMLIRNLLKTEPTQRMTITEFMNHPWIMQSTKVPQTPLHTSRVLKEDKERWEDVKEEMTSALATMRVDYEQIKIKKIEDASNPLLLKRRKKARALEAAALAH

Structure (SMILES): O=C(NCCCNc1nc(Nc2cccc(F)c2)ncc1C1CC1)C1CCC1 [Example 23, Cyclobutanecarboxylic acid {3-[5-cyclopropyl-2-(3-fluoro-phenylamino)-pyrimidin-4-ylamino]-propyl}-amide]
- remaining activity at 10 µM (P38b MAPK; read-out: residual kinase activity P38b MAPK): 92%
- residual kinase activity P38b MAPK (P38b MAPK; 1 μm compound): 86%
- remaining activity at 1 µM (P38b MAPK; P38b MAPK, 1 μM compound, read-out: residual kinase activity): 86%
- remaining activity at 10 µM (P38b MAPK; P38b MAPK, read-out: residual kinase activity): 92%
- remaining activity at 10 µM (HIPK2; read-out: residual kinase activity HIPK2): 26%
- residual kinase activity HIPK2 (HIPK2; 1 μm compound): 59%
- remaining activity at 1 µM (HIPK2; HIPK2, 1 μM compound, read-out: residual kinase activity): 59%
- remaining activity at 10 µM (HIPK2; HIPK2, read-out: residual kinase activity): 26%
- remaining activity at 10 µM (CAMKKb; read-out: residual kinase activity CAMKKb): 8%
- residual kinase activity CAMKKb (CAMKKb; 1 μm compound): 43%
- remaining activity at 1 µM (CAMKKb; CAMKKb, 1 μM compound, read-out: residual kinase activity): 43%
- remaining activity at 10 µM (CAMKKb; CAMKKb, read-out: residual kinase activity): 8%
- remaining activity at 10 µM (FGF-R1; read-out: residual kinase activity FGF-R1): 36%
- residual kinase activity FGF-R1 (FGF-R1; 1 μm compound): 89%
- remaining activity at 1 µM (FGF-R1; FGF-R1, 1 μM compound, read-out: residual kinase activity): 89%
- remaining activity at 10 µM (FGF-R1; FGF-R1, read-out: residual kinase activity): 36%
- remaining activity at 10 µM (BTK; read-out: residual kinase activity BTK): 25%
- residual kinase activity BTK (BTK; 1 μm compound): 74%
- remaining activity at 1 µM (BTK; BTK, 1 μM compound, read-out: residual kinase activity): 74%
- remaining activity at 10 µM (BTK; BTK, read-out: residual kinase activity): 25%
- remaining activity at 10 µM (MKK1; read-out: residual kinase activity MKK1): 25%
- residual kinase activity MKK1 (MKK1; 1 μm compound): 52%
- remaining activity at 1 µM (MKK1; MKK1, 1 μM compound, read-out: residual kinase activity): 52%
- remaining activity at 10 µM (MKK1; MKK1, read-out: residual kinase activity): 25%
- remaining activity at 10 µM (Lck; read-out: residual kinase activity Lck): 37%
- residual kinase activity Lck (Lck; 1 μm compound): 86%
- remaining activity at 1 µM (Lck; Lck, 1 μM compound, read-out: residual kinase activity): 86%
- remaining activity at 10 µM (Lck; Lck, read-out: residual kinase activity): 37%
- remaining activity at 10 µM (SYK; read-out: residual kinase activity SYK): 46%
- residual kinase activity SYK (SYK; 1 μm compound): 87%
- remaining activity at 1 µM (SYK; SYK, 1 μM compound, read-out: residual kinase activity): 87%
- remaining activity at 10 µM (SYK; SYK, read-out: residual kinase activity): 46%
- remaining activity at 10 µM (CSK; read-out: residual kinase activity CSK): 69%
- residual kinase activity CSK (CSK; 1 μm compound): 77%
- remaining activity at 1 µM (CSK; CSK, 1 μM compound, read-out: residual kinase activity): 77%
- remaining activity at 10 µM (CSK; CSK, read-out: residual kinase activity): 69%
- remaining activity at 10 µM (PIM3; read-out: residual kinase activity PIM3): 37%
- residual kinase activity PIM3 (PIM3; 1 μm compound): 73%
- remaining activity at 1 µM (PIM3; PIM3, 1 μM compound, read-out: residual kinase activity): 73%
- remaining activity at 10 µM (PIM3; PIM3, read-out: residual kinase activity): 37%
- remaining activity at 10 µM (VEG-FR; read-out: residual kinase activity VEG-FR): 27%
- residual kinase activity VEG-FR (VEG-FR; 1 μm compound): 81%
- remaining activity at 1 µM (VEG-FR; VEG-FR, 1 μM compound, read-out: residual kinase activity): 81%
- remaining activity at 10 µM (VEG-FR; VEG-FR, read-out: residual kinase activity): 27%
- remaining activity at 10 µM (MAPKAP-K2; read-out: residual kinase activity MAPKAP-K2): 86%
- residual kinase activity MAPKAP-K2 (MAPKAP-K2; 1 μm compound): 77%
- remaining activity at 1 µM (MAPKAP-K2; MAPKAP-K2, 1 μM compound, read-out: residual kinase activity): 77%
- remaining activity at 10 µM (MAPKAP-K2; MAPKAP-K2, read-out: residual kinase activity): 86%
- remaining activity at 10 µM (PRK2; read-out: residual kinase activity PRK2): 60%
- residual kinase activity PRK2 (PRK2; 1 μm compound): 67%
- remaining activity at 1 µM (PRK2; PRK2, 1 μM compound, read-out: residual kinase activity): 67%
- remaining activity at 10 µM (PRK2; PRK2, read-out: residual kinase activity): 60%
- remaining activity at 10 µM (PLK1; read-out: residual kinase activity PLK1): 62%
- residual kinase activity PLK1 (PLK1; 1 μm compound): 90%
- remaining activity at 1 µM (PLK1; PLK1, 1 μM compound, read-out: residual kinase activity): 90%
- remaining activity at 10 µM (PLK1; PLK1, read-out: residual kinase activity): 62%
